From article PMC8118430, “Utility of novel 2-furanones in synthesis of other heterocyclic compounds having anti-inflammatory activity with dual COX2/LOX inhibition” (Journal of Enzyme Inhibition and Medicinal Chemistry, 2021) come the findings set out here.

Read-outs that look alike come from different tables or passages of the source.

One data set addresses T1, COX-2 (Homo sapiens, UniProt P35354).
T1 sequence (P35354 18-604): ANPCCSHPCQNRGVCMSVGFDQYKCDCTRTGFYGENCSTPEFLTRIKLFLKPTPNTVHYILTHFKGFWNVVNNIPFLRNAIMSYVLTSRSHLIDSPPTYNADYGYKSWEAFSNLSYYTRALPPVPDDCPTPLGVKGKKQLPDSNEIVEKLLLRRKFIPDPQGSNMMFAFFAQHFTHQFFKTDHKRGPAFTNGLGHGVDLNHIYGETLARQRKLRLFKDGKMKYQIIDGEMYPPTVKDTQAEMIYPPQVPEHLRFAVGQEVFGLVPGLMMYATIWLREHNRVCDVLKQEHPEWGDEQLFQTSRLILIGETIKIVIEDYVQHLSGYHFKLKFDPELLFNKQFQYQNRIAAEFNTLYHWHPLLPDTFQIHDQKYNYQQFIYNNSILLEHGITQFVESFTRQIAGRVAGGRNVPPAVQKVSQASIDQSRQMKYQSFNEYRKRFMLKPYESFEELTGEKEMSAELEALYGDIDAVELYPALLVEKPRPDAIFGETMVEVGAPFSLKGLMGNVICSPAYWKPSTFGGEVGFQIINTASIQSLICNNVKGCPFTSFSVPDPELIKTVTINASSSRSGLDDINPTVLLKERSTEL
In words: Cyclooxygenase COX-2 inhibition assay (Cayman COX inhibitor screening kit, EIA). Conditions: for Selectivity indexes (SI): SI = IC50 COX-1/COX-2 ratios.

The next data set deals with T2, 15-LOX (Glycine max, UniProt P08170).
T2 construct: purchased Cayman Chemical 760700
T2 sequence (P08170 1-839): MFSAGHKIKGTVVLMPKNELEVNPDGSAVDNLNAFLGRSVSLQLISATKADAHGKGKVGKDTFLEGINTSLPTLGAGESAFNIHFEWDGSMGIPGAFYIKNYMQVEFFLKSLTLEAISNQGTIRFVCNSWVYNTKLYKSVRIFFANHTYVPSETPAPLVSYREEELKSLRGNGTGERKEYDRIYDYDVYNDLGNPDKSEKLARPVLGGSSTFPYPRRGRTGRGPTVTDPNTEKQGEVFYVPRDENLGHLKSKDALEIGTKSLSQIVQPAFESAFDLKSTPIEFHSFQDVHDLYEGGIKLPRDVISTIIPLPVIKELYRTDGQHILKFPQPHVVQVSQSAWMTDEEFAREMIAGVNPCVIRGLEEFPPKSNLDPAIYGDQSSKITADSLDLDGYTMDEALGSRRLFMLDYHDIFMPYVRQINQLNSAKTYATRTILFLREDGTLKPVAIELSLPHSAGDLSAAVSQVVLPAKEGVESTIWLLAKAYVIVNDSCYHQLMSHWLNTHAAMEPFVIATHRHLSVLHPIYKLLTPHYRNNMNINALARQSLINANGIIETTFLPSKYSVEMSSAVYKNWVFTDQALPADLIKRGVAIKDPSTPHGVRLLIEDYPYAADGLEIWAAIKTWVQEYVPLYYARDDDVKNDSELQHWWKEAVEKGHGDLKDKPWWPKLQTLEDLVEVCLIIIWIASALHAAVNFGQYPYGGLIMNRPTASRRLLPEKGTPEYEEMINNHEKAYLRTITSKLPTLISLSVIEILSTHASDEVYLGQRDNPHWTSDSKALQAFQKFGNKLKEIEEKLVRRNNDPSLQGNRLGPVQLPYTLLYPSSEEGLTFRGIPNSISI
The data set can be described thus: Lipoxygenase (15-LOX) inhibition assay (Cayman LOX inhibitor screening kit). Type of data set: biochemical, soybean. To be noted: mean ± SD of three experiments. On the procedure: Briefly, in a 96-well plate, 10 µl of each test compound (dissolved in DMSO) or vehicle were pre-incubated with 90 µl of 15-LOX enzyme. The reaction was started by addition of 10 µl of substrate (AA) and the plate was shaken for at least 5 min. Then, 100 µl of chromogen supplied with the kit was added to each well to stop the enzymatic reaction and develop the colour. The absorbance was measured at 490 nm using microplate reader.
Therefore, the soybean LOX is most like the mammalian 15-LOX[59].

In a further data set the target is T3, TNF-α (Homo sapiens, UniProt P01375).
T3 construct: purchased BPS Bioscience 79756
In words: TNFR2: TNF-α [biotinylated] inhibitor screening assay. Type of data set: binding. To be noted: mean ± SD of three experiments. How it is done:
The assay was performed in triplicates using TNFR2: TNF-α [biotinylated] […] First, TNFR2 is coated on a 96-well plate. Next, biotinylated TNF-α is incubated with TNFR2 on the plate. Finally, the plate was treated with streptavidin-HRP followed by addition of an HRP substrate to produce chemiluminescence, which can be measured using a chemiluminescence reader.

A further data set addresses T4, COX-1 (Ovis aries, UniProt P05979).
T4 sequence (P05979 25-600): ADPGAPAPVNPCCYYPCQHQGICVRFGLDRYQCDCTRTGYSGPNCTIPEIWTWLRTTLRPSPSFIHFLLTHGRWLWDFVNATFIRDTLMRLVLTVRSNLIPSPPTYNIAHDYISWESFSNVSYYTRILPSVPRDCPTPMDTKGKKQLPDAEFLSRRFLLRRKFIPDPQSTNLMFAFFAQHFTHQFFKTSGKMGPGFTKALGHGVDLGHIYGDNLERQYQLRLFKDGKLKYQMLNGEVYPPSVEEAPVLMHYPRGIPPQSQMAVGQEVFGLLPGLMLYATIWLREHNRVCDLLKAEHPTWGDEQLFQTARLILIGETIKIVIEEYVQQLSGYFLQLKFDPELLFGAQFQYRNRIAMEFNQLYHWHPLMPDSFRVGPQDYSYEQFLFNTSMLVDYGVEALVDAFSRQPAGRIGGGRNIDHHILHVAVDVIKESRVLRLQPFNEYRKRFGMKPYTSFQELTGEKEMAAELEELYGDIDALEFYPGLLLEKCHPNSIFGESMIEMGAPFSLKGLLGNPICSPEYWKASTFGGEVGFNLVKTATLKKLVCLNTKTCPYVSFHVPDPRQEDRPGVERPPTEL
The data set can be described thus: Cyclooxygenase COX-1 inhibition assay (Cayman COX inhibitor screening kit, EIA).

Where [1] appears, read: read-out: COX 2 IC50, mean ± SD of three experiments.
[2] abbreviates: read-out: COX1 IC50, mean ± SD of three experiments.

T3 sequence (P01375 77-233 limits assumed): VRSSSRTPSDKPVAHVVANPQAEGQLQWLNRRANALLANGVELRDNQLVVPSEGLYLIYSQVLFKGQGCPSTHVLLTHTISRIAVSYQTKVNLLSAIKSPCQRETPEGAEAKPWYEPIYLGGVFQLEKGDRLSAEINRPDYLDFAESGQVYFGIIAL
Method for COX-1: (§1) Tested compounds were dissolved in DMSO. […] The COX inhibitor screening assay depends on direct measurement of the amount of PG2α produced in the COX reaction. […] Enzyme catalysis was terminated by addition of 50 µl 1 M HCl and 100 µl of the saturated stannous chloride solution. The PGs are quantified by enzyme immunoassay (EIA) at 410 nm.
(§2) Thus, the newly synthesised compounds were tested for their anti-inflammatory activity against isozymes COX-1 and COX-2, which were determined by the COX-catalysed transformation of AA into PGH2 that was reduced to PGF2α and detected by the EIA[53], as shown in Table 1.
Method for COX-2: as §1, §2

The compound `O=C1OC(c2ccc(Cl)c(Cl)c2)=CC1=Cc1ccccc1[N+](=O)[O-]` [Compound 2a, 5-(3,4-Dichlorophenyl)3-(2-nitrobenzylidene)-furan-2-one] registered a melting point of 259 to 261 °C. At COX-2, 350 ± 10 nM corresponded to half-maximal inhibition (IC50) and the “Selectivity indexes (SI)” value was determined as 12.94. Further, on 15-LOX, half-maximal inhibition (IC50) was put at 5100 ± 100 nM. At TNF-α, this compound showed a 50% inhibitory concentration (IC50) of 7.47 ± 0.12 nM. The compound further came in with an IC50 against COX-1 of 4530 ± 120 nM.

`O=C1OC(c2ccc(Cl)c(Cl)c2)=CC1=Cc1cccc([N+](=O)[O-])c1` [Compound 2b, 5-(3,4-Dichlorophenyl)3-(3-nitrobenzylidene)-furan-2-one] had a melting point of 230 to 232 °C. Moreover, at COX-2, half-maximal inhibition (IC50) was put at 280 ± 10 nM and the “Selectivity indexes (SI)” value worked out at 24.89. Moreover, at 15-LOX, inhibition was half-maximal at 4400 ± 100 nM (IC50). Besides, the IC50 at TNF-α came to 7.77 ± 1.68 nM. Besides, at COX-1, the IC50 was determined as 6970 ± 120 nM.

As to `CN(C)c1ccc(C=C2C=C(c3ccc(Cl)c(Cl)c3)OC2=O)cc1` [Compound 2c, 5-(3,4-Dichlorophenyl)3-(4-dimethylaminobenzylidene)-furan-2-one], the melting point was in the range of 204 to 206 °C. At COX-2, it took 420 ± 20 nM to reach half-maximal inhibition (IC50) and the “Selectivity indexes (SI)” value is recorded as 9.36. Also, the IC50 at 15-LOX is 6130 ± 120 nM. Also, the IC50 against TNF-α was determined as 8.2 ± 0.1 nM. The same compound yielded an IC50 against COX-1 of 3930 ± 60 nM. Moreover, the “times less active than the reference drug indomethacin as COX-1 inhibitor” value at COX-1 (ratio of COX-1 IC50 values) worked out at 39.

With `O=C1NC(c2ccc(Cl)c(Cl)c2)=CC1=Cc1ccccc1[N+](=O)[O-]` [Compound 3a, 5-(3,4-Dichlorophenyl)-3-(2-nitrobenzylidene)-1H-pyrrol-2-one], the melting point is > 300 °C. Further, at COX-2, the IC50 turned out to be 190 ± 10 nM and the “Selectivity indexes (SI)” value is reported as 44.05. At 15-LOX, this compound registered a concentration for half-maximal inhibition (IC50) of 2330 ± 120 nM. Moreover, the IC50 against TNF-α came out at 5.93 ± 0.15 nM. Moreover, the IC50 on COX-1 was 8370 ± 120 nM.

Regarding `O=C1NC(c2ccc(Cl)c(Cl)c2)=CC1=Cc1cccc([N+](=O)[O-])c1` [Compound 3b, 5-(3,4-Dichlorophenyl)-3-(3-nitrobenzylidene)-1H-pyrrol-2-one], the melting point is > 300 °C. Further, at COX-2, the IC50 was 390 ± 10 nM and the “Selectivity indexes (SI)” value amounted to 17.62. The compound also displayed an IC50 on 15-LOX of 1870 ± 150 nM. It took 8.27 ± 0.12 nM to reach half-maximal inhibition at TNF-α (IC50). At COX-1, this compound yielded an IC50 of 6870 ± 120 nM.

Regarding `CN(C)c1ccc(C=C2C=C(c3ccc(Cl)c(Cl)c3)NC2=O)cc1` [Compound 3c, 5-(3,4-Dichlorophenyl)-3-(4-dimethylaminobenzylidene)-1H-pyrrol-2-one], the melting point is > 300 °C. Besides, at COX-2, the midpoint of inhibition, the IC50, lay at 340 ± 10 nM and the “Selectivity indexes (SI)” value is 17.44. In addition, half-maximal inhibition against 15-LOX (IC50) was put at 2210 ± 980 nM. On TNF-α, this compound returned an IC50 of 6.77 ± 0.12 nM. At COX-1, this compound came in with an IC50 of 5930 ± 150 nM.

`O=C(NCc1ccccc1)C(=Cc1ccccc1[N+](=O)[O-])CC(=O)c1ccc(Cl)c(Cl)c1` [Compound 4a, N-benzyl-2-(2-nitrobenzylidene)-4-(3,4-dichlorophenyl)-4-oxobutanamide] showed a melting point of 250 to 252 °C. At COX-2, the IC50 was 50 nM and the “Selectivity indexes (SI)” value amounted to 221.40. The IC50 at 15-LOX was 5470 ± 120 nM. At TNF-α, this compound displayed an IC50 of 4.77 ± 0.12 nM. The IC50 against COX-1 came to 11100 ± 150 nM.

Turning to `O=C(NCc1ccccc1)C(=Cc1cccc([N+](=O)[O-])c1)CC(=O)c1ccc(Cl)c(Cl)c1` [Compound 4b, N-benzyl-2-(3-nitrobenzylidene)-4-(3,4-dichlorophenyl)-4-oxobutanamide], the melting point fell in the range of 124 to 126 °C. Moreover, on COX-2, the IC50 worked out at 60 nM and the “Selectivity indexes (SI)” value is reported as 222.17. For the same compound, inhibition at 15-LOX was half-maximal at 5870 ± 60 nM (IC50). This compound had an IC50 on TNF-α of 3.53 ± 0.12 nM. This compound gave an IC50 on COX-1 of 13300 ± 150 nM.

The compound `CN(C)c1ccc(C=C(CC(=O)c2ccc(Cl)c(Cl)c2)C(=O)NCc2ccccc2)cc1` [Compound 4c, N-benzyl-2-(4-dimethylaminobenzylidene]-4-(3,4-dichlorophenyl)-4-oxobutanamide] displayed a melting point of 241 to 243 °C. In addition, at COX-2, the midpoint of inhibition, the IC50, lay at 50 nM and the “Selectivity indexes (SI)” value was found to be 238.00. Also, the IC50 on 15-LOX stood at 4670 ± 60 nM. The compound further yielded an IC50 against TNF-α of 5.47 ± 0.12 nM. In addition, the IC50 on COX-1 was determined as 11900 ± 100 nM.

As to `O=c1[nH]nc(-c2ccc(Cl)c(Cl)c2)cc1Cc1ccccc1[N+](=O)[O-]` [Compound 7a, 3-(3,4-Dichlorophenyl)-5-[(2-nitropheny)l-methyl]-1H-pyridazin-6-one], the “Selectivity indexes (SI)” value at COX-2 turned out to be 41.35. The IC50 at COX-2 (setting [1]) worked out at 170 ± 10 nM; on 15-LOX, 5470 ± 120 nM; against TNF-α, 8.53 ± 0.12 nM; at COX-1 (setting [2]), 7030 ± 150 nM.

Consider `O=c1[nH]nc(-c2ccc(Cl)c(Cl)c2)cc1Cc1cccc([N+](=O)[O-])c1` [Compound 7b, 3-(3,4-Dichlorophenyl)-5-[(3-nitropheny)l-methyl]-1H-pyridazin-6-one], for which, at COX-2, the “Selectivity indexes (SI)” value worked out at 26.68. The IC50 on COX-2 (setting [1]) stood at 250 ± 10 nM; at 15-LOX, 5870 ± 60 nM; at TNF-α, 8.17 ± 0.06 nM; on COX-1 (setting [2]), 6670 ± 120 nM.

Regarding `CN(C)c1ccc(Cc2cc(-c3ccc(Cl)c(Cl)c3)n[nH]c2=O)cc1` [Compound 7c, 3-(3,4-Dichlorophenyl)-5-[(4-dimethylaminopheny)l-methyl]-1H-pyridazin-6-one], the “Selectivity indexes (SI)” value at COX-2 is recorded as 69.42. Also, the IC50 came to 120 ± 10 nM at COX-2 (setting [1]), 4670 ± 60 nM against 15-LOX, 7.57 ± 0.06 nM at TNF-α and 8330 ± 60 nM at COX-1 (setting [2]).

Turning to `O=C(CC(=Cc1cccc([N+](=O)[O-])c1)c1n[nH]c(=S)o1)c1ccc(Cl)c(Cl)c1` [Compound 9b, 1-(3,4-Dichlorophenyl)-4-(3-nitrophenyl)-3-(2-thioxo-4,5-dihydro-1,3,4-oxadiazol-5-yl)but-3-en-1-one], the IC50 at 15-LOX worked out at 1630 ± 150 nM; against TNF-α, 4.33 ± 0.12 nM; on COX-1, 10400 ± 120 nM.

By IC50 is commonly meant the concentration at which inhibition is half-maximal. By melting point is commonly meant the temperature of the solid-liquid transition.
